From PubChem BioAssay (NCI)
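Following 48 hours of exposure in 96-well plates, responses at five concentrations were used to interpolate endpoints linearly. Abbreviation: GI50, concentration required for 50% inhibition of growth. At the TGI there is no net growth.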

How the values were obtained:
Experiment in all cases: DTP human tumour cell line panel, 48 h
IGROV1 ovarian = system: IGROV1 ovarian
DU-145 prostate = system: DU-145 prostate
OVCAR-8 ovarian = system: OVCAR-8 ovarian
MCF7 breast = system: MCF7 breast
OVCAR-5 ovarian = system: OVCAR-5 ovarian
SN12C renal = system: SN12C renal
K-562 leukemia = system: K-562 leukemia
HT29 colon = system: HT29 colon
NCI-H460 lung = system: NCI-H460 lung
PC-3 prostate = system: PC-3 prostate
SK-MEL-28 melanoma = system: SK-MEL-28 melanoma
HCC-2998 colon = system: HCC-2998 colon
OVCAR-4 ovarian = system: OVCAR-4 ovarian
A498 renal = system: A498 renal
EKVX NSCLC = system: EKVX NSCLC
M14 melanoma = system: M14 melanoma
CAKI-1 renal = system: CAKI-1 renal
NCI-H226 lung = system: NCI-H226 lung
CCRF-CEM leukemia = system: CCRF-CEM leukemia
SF-268 CNS = system: SF-268 CNS
ACHN renal = system: ACHN renal
NCI-H23 lung = system: NCI-H23 lung
SK-MEL-2 melanoma = system: SK-MEL-2 melanoma
HL-60(TB) leukemia = system: HL-60(TB) leukemia
HCT-15 colon = system: HCT-15 colon
786-0 renal = system: 786-0 renal
COLO 205 colon = system: COLO 205 colon
SNB-19 CNS = system: SNB-19 CNS
UACC-257 melanoma = system: UACC-257 melanoma

C/C(Cc1ccc(Cl)cc1)=C(\c1ccc(OCCN2CCCCCC2)cc1)c1ccc(OC(=O)c2ccccc2)cc1
GI50 (IGROV1 ovarian): 2720 nM
TGI (IGROV1 ovarian): 10.3 µM
GI50 (DU-145 prostate): 4.26 µM
TGI (DU-145 prostate): 11.1 µM
GI50 (OVCAR-8 ovarian): 2850 nM
TGI (OVCAR-8 ovarian): 9.35 µM
GI50 (MCF7 breast): 358 nM
TGI (MCF7 breast): 6.92 µM
GI50 (OVCAR-5 ovarian): 4.64 µM
TGI (OVCAR-5 ovarian): 11.7 µM
GI50 (SN12C renal): 3.19 µM
TGI (SN12C renal): 10.3 µM
GI50 (K-562 leukemia): 1550 nM
TGI (K-562 leukemia): 5.88 µM
GI50 (HT29 colon): 1640 nM
TGI (HT29 colon): 5.75 µM
GI50 (NCI-H460 lung): 1610 nM
TGI (NCI-H460 lung): 5.23 µM
GI50 (PC-3 prostate): 1700 nM
TGI (PC-3 prostate): 7.29 µM
GI50 (SK-MEL-28 melanoma): 1150 nM
TGI (SK-MEL-28 melanoma): 2940 nM
GI50 (HCC-2998 colon): 1380 nM
TGI (HCC-2998 colon): 3.53 µM
GI50 (OVCAR-4 ovarian): 1880 nM
TGI (OVCAR-4 ovarian): 8.51 µM
GI50 (A498 renal): 5.37 µM
TGI (A498 renal): 11.4 µM
GI50 (EKVX NSCLC): 4.32 µM
TGI (EKVX NSCLC): 16.6 µM
GI50 (M14 melanoma): 1010 nM
TGI (M14 melanoma): 2360 nM
GI50 (CAKI-1 renal): 3.08 µM
TGI (CAKI-1 renal): 10.6 µM
GI50 (NCI-H226 lung): 8.45 µM
TGI (NCI-H226 lung): 17.5 µM
GI50 (CCRF-CEM leukemia): 1120 nM
TGI (CCRF-CEM leukemia): 3.79 µM
GI50 (SF-268 CNS): 3.03 µM
TGI (SF-268 CNS): 10.7 µM
GI50 (ACHN renal): 5.77 µM
TGI (ACHN renal): 12.8 µM
GI50 (NCI-H23 lung): 4.69 µM
TGI (NCI-H23 lung): 12.6 µM
GI50 (SK-MEL-2 melanoma): 6.92 µM
TGI (SK-MEL-2 melanoma): 14 µM
GI50 (HL-60(TB) leukemia): 1620 nM
TGI (HL-60(TB) leukemia): 9.03 µM
GI50 (HCT-15 colon): 1730 nM
TGI (HCT-15 colon): 7.53 µM
GI50 (786-0 renal): 2990 nM
TGI (786-0 renal): 9.44 µM
GI50 (COLO 205 colon): 1710 nM
TGI (COLO 205 colon): 7.34 µM
GI50 (SNB-19 CNS): 5.29 µM
TGI (SNB-19 CNS): 14.6 µM
GI50 (UACC-257 melanoma): 6.18 µM
